Assay results published in ChEMBL document CHEMBL1150140, “Three new C-14 oxygenated taxanes from the wood of Taxus yunnanensis” (J Nat Prod, 2002).
Values after ≈ are worked out from the molar mass of the structure shown.

Assays:
[1] = system: HT-1080; assay: Antiproliferative activity against human HT1080 cells by MTT assay; assay type: functional, cell-based
[2] = Antiproliferative activity against mouse Colon 26-L5 cells by MTT assay; assay type: functional, cell-based

| SMILES | EC50 [1] | EC50 [2] |
| --- | --- | --- |
| C=C1[C@@H](OC(C)=O)CC[C@@]2(C)C[C@H](O)C3=C(C)C[C@H](OC(=O)CC)[C@@H]([C@@H](OC(C)=O)[C@H]12)C3(C)C [HONGDOUSHAN B] | > 100 µg/mL | 70.4 µg/mL (≈ 148 µM) |
| CC(=O)O[C@H]1C[C@]2(C(C)(C)O)C(=C1C)[C@@H](O)[C@@H](OC(=O)c1ccccc1)[C@]1(C)[C@@H](OC(C)=O)C[C@H](O)[C@@]3(OC(C)=O)CO[C@H]2[C@H]31 [TAXUYUNNANINE E] | > 100 µg/mL | > 100 µg/mL |
| O=c1[nH]cc(F)c(=O)[nH]1 [FLUOROURACIL] | 0.29 µg/mL (≈ 2.23 µM) | 0.07 µg/mL (≈ 0.538 µM) |
| COc1cc([C@H]2c3cc(O)c(OC)cc3C[C@H]3C(=O)OC[C@H]23)ccc1O [ALPHA-CONIDENDRIN] | > 100 µg/mL | > 100 µg/mL |
| C=C1[C@@H](OC(C)=O)CC[C@]2(C)[C@@H]1C[C@@H]1C[C@H](OC(C)=O)C(C)=C([C@@H](OC(C)=O)[C@@H]2OC(C)=O)C1(C)C [TAXUSIN] | 61.4 µg/mL (≈ 122 µM) | 51.7 µg/mL (≈ 102 µM) |
| COc1cc(C[C@@H](CO)[C@H](CO)Cc2ccc(O)c(OC)c2)ccc1O [(+)-SECOISOLARICIRESINOL] | 5.9 µg/mL (≈ 16.3 µM) | 60.2 µg/mL (≈ 166 µM) |
| C=C1[C@@H](O)CC[C@@]2(C)C[C@H](O)C3=C(C)C[C@H](OC(=O)[C@@H](C)CC)[C@@H]([C@@H](OC(C)=O)[C@H]12)C3(C)C [HONGDOUSHAN C] | 61.1 µg/mL (≈ 132 µM) | 3.8 µg/mL (≈ 8.21 µM) |
| C=C1[C@@H](OC(C)=O)CC[C@@]2(C)C[C@H](OC(C)=O)C3=C(C)C[C@H](OC(=O)[C@@H](C)CC)[C@@H]([C@@H](OC(C)=O)[C@H]12)C3(C)C | 84.9 µg/mL (≈ 155 µM) | 84.1 µg/mL (≈ 154 µM) |
| C=C1[C@@H](OC(C)=O)CC[C@@]2(C)C[C@H](O)C3=C(C)C[C@H](OC(=O)[C@@H](C)CC)[C@@H]([C@@H](OC(C)=O)[C@H]12)C3(C)C [HONGDOUSHAN A] | 61 µg/mL (≈ 121 µM) | 40.1 µg/mL (≈ 79.5 µM) |
